{
  "source": "patent US11712483B2",
  "about": "“Activatable membrane-interacting peptides and methods of use” (priority 2013, dated 2023)",
  "key": {"[1]": {"system": "blood clots formed in vitro", "experiment": "Blood clots formed on glass slides", "design": "species or system bovine", "settings": "for accumulation on actively clotting platelets / localization to blood clots: clots on glass slides, fluorescence microscopy; for accumulation on red blood cells: without activation", "protocol": "Whole bovine blood was mixed at a ratio of 5:1 with a 10 nM solution of promolecules bearing the fluorescent dye Cy5. The mixture was then added to 1 uL of activated coagulation factor Xa (10 nM) and calcium chloride (10 mM) to initiate clot formation on the surface of a conventional microscopy slide. The mixture was then stirred with the tip of a plastic pipette for four minutes until a clot was formed. The clot was then pulled gently across the slide with the goal of flattening out the clot for better imaging. A coverslip was then placed on top of the slide and held in place by dabbing the corners with adhesive. The slide was then imaged within a few hours using an epifluorescence microscope (Nikon Eclipse Ti-E) bearing the appropriate filters for detection of the Cy5 dye."}, "[2]": {"system": "enteropeptidase or thrombin activity", "experiment": "Fluorescence imaging in a subject, promolecule activated by either of two enzymes", "type": "in vivo", "settings": "administered to a subject", "protocol": "In order to activate this promolecule, either X^2a or X^2b must be cleaved, so that this promolecule is activated by either thrombin or enteropeptidase activity. The molecule is administered to a subject, and is cleaved in areas having enteropeptidase or thrombin activity, causing portion A to separate from portion Z and interact with membranes in the vicinity."}, "[3]": {"settings": "in vivo", "quoted_text": "In order to extend the circulating half-life of the promolecule, it is covalently linked to a molecule of polyethylene glycol (PEG) having a moleculer weight of 1,000 Daltons. The PEG-modified promolecule is administered to a subject and the circulating half-life is measured."}, "[4]": {"system": "mouse pancreatic duct carcinoma cells", "experiment": "DRAQ7 exclusion, mouse pancreatic duct adenocarcinoma cells", "type": "cell-based", "settings": "prolonged incubation, high micromolar concentrations, FIGS. 10 and 11", "protocol": "DRAQ7 is a far-red fluorescent DNA dye that stains the nuclei of dead and permeabilized cells. Unlike trypan blue, it can be combined with other commonly used fluorophores, such as Oregon Green 488 and Cy5. Healthy cells exclude the dye, and no increase in fluorescence is observed. […] When complexed with double stranded DNA, the dye has a maximum excitation wavelength of 643 nm and a maximum emission wavelength of 694 nm. Cells incubated with the promolecule or the activated peptide form of the promolecule in the presence or absence of thrombin (5 nM) were exposed to DRAQ7 (3 μM) for at least 10 minutes and then imaged using two different approaches. In the first approach, the cells were mouse pancreatic duct adenocarcinoma cells, the incubation buffer contained wheat germ agglutinin conjugated with Oregon Green 488, and the cells were visualized with a Nikon Eclipse Ti-E bearing the appropriate filters. In the second approach, mouse X3 fibroblast cells bearing a modified Histone 2A gene fused to green fluorescent protein (GFP) were imaged using an Acumen Ex3—a commercially available confocal microscopy instrument specifically designed for high throughput, content rich and highly multiplexed data applicable to a wide range of biological assays."}, "[5]": {"experiment": "Intrinsic tryptophan fluorescence with liposomes or detergent micelles", "type": "binding", "description": "Intrinsic fluorescence was used to characterize promolecules containing one or more tryptophan residues in portion A. As the spectral properties of tryptophan are dependent upon its local environment, this provides unequivocal definition of its partitioning into phospholipid membranes. In aqueous conditions, tryptophan typically emits light near 355 nm when excited with 285 nm light. In contrast, the emitted light is […] or lowered when the tryptophan of the peptide is present in an apolar environment, such as the interior of a phospholipid membrane, and produces a maximum emission wavelength typically in the range of 325 to 345 nm. Both the magnitude and wavelength of light emitted under this fluorescence assay are influenced by the properties of the peptide and the composition of the phospholipid membrane. […] A typical assay employed an 8 μM solution of promolecules and liposomes of defined size (100 nm in diameter, 0.5 mM) composed of phosphatidylserine or phosphatidylcholine or a combination thereof to test the influence of negatively charged or zwitterionic surfaces. […] Time-dependent measurement of the fluorescence emission spectra was used to characterize the activation of the promolecules by thrombin (2 nM) or by other proteases (10 nM or higher)."}, "MDA-MB-231 cells": {"system": "MDA-MB-231 cells", "experiment": "Trypan blue dye exclusion, MDA-MB-231 cells", "type": "cell-based", "settings": "1 hour, 37° C.", "protocol": "(§1) To examine the interaction of the promolecule and its activated form with cell membranes rather than artificial membranes, the promolecules were incubated with cells of the breast cancer cell line MDA-MB-231 (approximately 100,000 cells in a volume of […]) for 1 hour at 37° C. in Dulbecco's modified Eagle medium containing 1% fetal bovine serum, and cell viability was assessed using Trypan blue dye exclusion."}, "matriptase": {"biological_target": "T1, matriptase (Homo sapiens, UniProt Q9Y5Y6)", "T1 sequence (Q9Y5Y6 615-855 limits assumed)": "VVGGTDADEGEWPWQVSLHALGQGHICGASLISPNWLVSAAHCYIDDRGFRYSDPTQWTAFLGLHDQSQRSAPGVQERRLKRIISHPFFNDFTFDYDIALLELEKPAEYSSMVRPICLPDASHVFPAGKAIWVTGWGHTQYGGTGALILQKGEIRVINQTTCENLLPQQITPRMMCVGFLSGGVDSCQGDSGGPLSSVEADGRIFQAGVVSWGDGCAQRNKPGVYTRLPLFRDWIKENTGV", "experiment": "Selective activation in MDA-MB-231 cells, trypan blue, matriptase", "type": "cell-based", "settings": "exogenous addition of different proteases", "protocol": "as §1\n(§2) Cy5 fluorescent dye was conjugated to this promolecule via an N-terminal thiol (module X^1a) to create a promolecule having the structure X^1a-A-X^2—Z, and its interaction with HT29 cells was analyzed using fluorescence microscopy. In this experiment, cells were grown to confluence on glass bottom microwell dishes and the peptide (10 uM) incubated with the cells for between one to three hours and then washed for staining with fluorescently-labeled wheat germ agglutinin. After such staining the cells were covered in typical cell culture media and allowed to grow overnight for another round of imaging."}, "HT29 cells": {"system": "HT29 cells", "experiment": "Fluorescence microscopy of HT29 cells", "type": "cell-based", "protocol": "as §2"}, "[6]": {"experiment": "Förster resonance energy transfer (FRET) to fluorescent liposomes", "type": "binding", "settings": "100 nm liposomes, entirely PS", "protocol": "Förster resonance energy transfer (FRET) relies upon the ability of light to be exchanged from one fluorescent moiety to another, which becomes possible only when the moieties are in close proximity to one another, typically less than about 30 Angstroms. Liposomes having similar composition to that used in the intrinsic fluorescence assays were prepared with 1% DiO, a lipid-soluble fluorescent compound whose fluorescence emission characteristics match the excitation wavelength of the promolecule when conjugated to […]. DiO-containing liposomes (1 μM) were mixed with Cy5 containing promolecules or activated peptide portions (20 nM), and the spectral characteristics of the mixture were determined. Cy3 was excited with 545 nm light, and the emission of Cy5 was measured over 650 to 700 nm. The activated peptide portions, but not the promolecules, enabled fluorescence energy transfer, which confirmed the observations made using intrinsic fluorescence."}, "thrombin": {"biological_target": "thrombin (Homo sapiens, UniProt P00734)", "experiment": "Thrombin-mediated proteolysis by reverse phase HPLC", "type": "biochemical", "settings": "digestion by thrombin, Michaelis-Menten", "protocol": "Thrombin-mediated proteolysis of promolecules was performed by incubating the enzyme at concentrations ranging from 0.1 to 2 nM with a 20 to 100 μM solution of the promolecule at 37° C. for up to three or a full twenty-four hours to ensure completeness. The extent of proteolysis was assessed by reverse phase high-pressure liquid chromatography. Samples were run over a C18 column using an acetonitrile gradient of 20% to 80% over a period of 30 minutes. Complete hydrolysis was evident by the absence of the initial peak corresponding to the promolecule, and was further validated using mass spectrometry."}},
  "note": "Entries after “also recorded” stand apart in the source; their conditions may differ. Where no end group is shown, it is not given here. Cy3 = cyanine3 fluorescent dye; Cy5 = cyanine5 fluorescent dye",
  "data": [
    {"substance": "Cy5-CFVQWFSKFLGKLLPRSFLLQDPNDQYEPFW [SEQ ID NO: 52]", "values": [
      {"measurement": "accumulation on actively clotting platelets / localization to blood clots", "setting": "[1]", "result": "intense accumulation of the activated peptide form of the promolecule; also recorded: localization of the membrane-interacting peptide-containing cleavage product to blood clots"},
      {"measurement": "accumulation on red blood cells", "setting": "[1]", "result": "did not accumulate on red blood cells"}
    ]},
    {"substance": "(Cy5)CFFWLSKIFPRDDDDKDD (Cy5-CFFWLSKIFPRDDDDKDD) [SEQ ID NO: 53]", "values": [
      {"measurement": "detection of Cy5 dye by fluorescence microscopy", "setting": "[2]", "result": "the Cy5 dye is detected in areas having enteropeptidase or thrombin activity"}
    ]},
    {"substance": "PEG-modified promolecule: SEQ ID NO: 52 covalently linked to polyethylene glycol of 1,000 Daltons (CFVQWFSKFLGKLLPRSFLLQDPNDQYEPFW; not fully specified (residue 1, N-terminus); printed as Cy5-CFVQWFSKFLGKLLPRSFLLQDPNDQYEPFW; also: PEG 1000 Da attached, site not given here)", "values": [
      {"measurement": "circulating half-life versus non-PEG-modified form", "setting": "[3]", "result": "longer circulating half-life than the non-PEG-modified form"}
    ]},
    {"substance": "FVQWFSKFLGKLLPRSFLLQDPNDQYEPFW [SEQ ID NO: 47]", "values": [
      {"measurement": "peptide-to-cell ratio at which cells did not exclude trypan blue or DRAQ7 (no longer viable)", "setting": "[4]", "result": "greater than 10^9 to one"}
    ]},
    {"substance": "(Cy5)FVQWFSKFLGKLLKSRAEDEGLYDDD (Cy5-FVQWFSKFLGKLLKSRAEDEGLYDDD; not fully specified; printed as (Cy5)FVQWFSKFLGKLLKSRAEDEGLYDDD) [SEQ ID NO: 49, matriptase-cleavable promolecule; tested as A-X^2—Z and with Cy5 via N-terminal thiol]", "values": [
      {"measurement": "maximum emission wavelength / spectral properties, intrinsic tryptophan fluorescence", "setting": "[5]; in presence of PC or PS liposomes or detergent micelles compared to buffer alone (PBS)", "result": "undergo a limited change"},
      {"measurement": "interaction with phospholipid membranes, intrinsic fluorescence", "setting": "[5]; promolecule A-X^2—Z before activation", "result": "moderate restricted interaction with phospholipid membranes"},
      {"measurement": "toxicity / cell death, trypan blue dye uptake", "setting": "MDA-MB-231 cells", "result": "Limited toxicity; also recorded: low toxicity; also recorded: did not"},
      {"measurement": "activation by matriptase (diminished trypan blue dye exclusion)", "setting": "matriptase", "result": "selectively activated by matriptase"},
      {"measurement": "fluorescent signal on cell surface", "setting": "HT29 cells; Cy5-conjugated promolecule, after co-incubation", "result": "accumulated on the surface of the HT29 cells; also recorded: detectable on the surface of cells"},
      {"measurement": "internalization into cells", "setting": "HT29 cells; after washing and further incubation (24 hours)", "result": "internalized into the cells; also recorded: localized in punctate spheres inside the cells"}
    ]},
    {"substance": "(Cy3-K)ILGTILGLLKGLPRSFLLRNPNDKYEPFW (Cy3-KILGTILGLLKGLPRSFLLRNPNDKYEPFW; also: Cy3 conjugated to N-terminal Lys, attachment site not given here) [SEQ ID NO: 48, thrombin-cleavable promolecule with protonectin as portion A, Cy3 on N-terminal lysine]", "values": [
      {"measurement": "FRET to DiO liposomes composed of phosphatidylserine (PS)", "setting": "[6]", "result": "do not associate closely enough with the PS liposomes to enable FRET"},
      {"measurement": "accumulation on actively clotting platelets / localization to blood clots", "setting": "[1]", "result": "intense accumulation of the active form of the promolecule; also recorded: localization of membrane-interacting peptide-containing cleavage products in blood clots"},
      {"measurement": "accumulation on red blood cells", "setting": "[1]", "result": "did not accumulate on red blood cells"},
      {"measurement": "Km", "setting": "thrombin", "result": 200, "unit": "nM"}
    ]}
  ]
}
